Active and inactive are the calls of the source.

By AC50 is commonly meant the midpoint of the concentration-response curve, whichever way the signal moves. The term EC50 denotes the concentration at which the effect is half-maximal. As a reminder, the CC50 is the concentration that lowers cell viability or growth by half.

Test [1] concerns the target Cytochrome P450 3A4 (Homo sapiens, UniProt P08684).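 Further: CYP3A4 tested as one member of a cytochrome P450 panel screen.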
Test [2] has as its target T1, Polyadenylate-binding protein 1 (Homo sapiens, UniProt P11940). The experiment in a line: MLLE binding blockers, Cy5 peptide tracer – biochemical, fluorescence polarization, Cy5-PAM2 peptide, secondary, miRNA deadenylation inhibitor project, dose response (AID 602260). Format: functional. The conditions noted are these: read-out: IC50_Mean. On the technique in general: Polarisation of emitted light reports the rotation of a fluorescent probe.

Test [3] deals with Cytochrome P450 2C9 (Homo sapiens, UniProt P11712).
Test [4] deals with T1, Polyadenylate-binding protein 1. As to the kind of experiment: MLLE domain peptide-binding blockers, IC50 – biochemical, fluorescence polarization, FITC-PAM2 peptide, dose response (AID 602259). In kind it is functional. The conditions noted are these: read-out: IC50_Mean.
The nature of test [5]: Luminescence Cell-Based Dose Retest to Confirm Inhibitors of Cancer Stem Cells. [Related pubchem assays (depositor defined):AID2717, AID2721]. In kind it is functional, Homo sapiens. The conditions noted are these: Homo sapiens.
In test [6] the test system is INS1. As to the kind of experiment: INS-1E survival protection against cytokine death – cell-based, luminescence, retest, dose response (AID 449756).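 Further: cell death triggered by IL-1 beta plus TNF-alpha plus IFN-gamma mixture; protective hits raise ATP signal compared with cytokine alone wells.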 In kind it is functional. The conditions noted are these: Rattus norvegicus.
Test [7] addresses T2, Ubiquitin-conjugating enzyme E2 N (Homo sapiens, UniProt P61088).
T2 sequence (P61088 whole entry): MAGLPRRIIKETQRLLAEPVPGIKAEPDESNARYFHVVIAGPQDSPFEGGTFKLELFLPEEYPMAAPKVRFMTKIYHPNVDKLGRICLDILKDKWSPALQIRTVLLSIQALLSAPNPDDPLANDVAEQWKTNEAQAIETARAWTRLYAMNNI
Format: functional.

Test [8] is described as follows: intracellular Trypanosoma cruzi inhibitors in host cells – cell-based, plate reader, cherry-pick samples, set 3, dose response (AID 651818).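 Further: compounds incubated with infected cells for about four days.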 In kind it is functional.
The target of test [9] is Luciferin 4-monooxygenase (Photinus pyralis, UniProt P08659). The experiment in a line: inhibition of purified Photinus pyralis luciferase – biochemical, luminescence, dose response (AID 1891).
Test [10] can be described thus: viability of PTEN-deleted HCT116 cells – cell-based, HCT116 PTEN knockout, dose response (AID 1047).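 Further: HCT116 colon tumor cells with PTEN knocked out; cells exposed to compound for 60 hours before readout; potency for loss of cell viability measured by luminescence.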 Format: functional.
Test [11] in a line: viability of HCT116 lacking mutant beta-catenin – cell-based, human colon tumor, dose response (AID 1045).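 Further: HCT116 colon tumor cells with beta catenin knocked out; cells exposed to compound for 60 hours.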 Format: functional.
In test [12] the target is Genome polyprotein (dengue virus type 2, UniProt P29990). As to the kind of experiment: flavivirus cap methylation enzyme inhibition – biochemical, confirmation dose response, primary screen (AID 588689). In kind it is functional.
The nature of test [13]: non-specific 3'UTR reporter inhibition in Clone20-Shn3RL – cell-based, Renilla luciferase, cherry-picked, counter-screen for Shn3 inhibitor project, dose response (AID 624133). In kind it is functional.
The target in test [14] is T3, Histone-lysine N-methyltransferase NSD2 (Homo sapiens, UniProt O96028).
T3 sequence (O96028 whole entry): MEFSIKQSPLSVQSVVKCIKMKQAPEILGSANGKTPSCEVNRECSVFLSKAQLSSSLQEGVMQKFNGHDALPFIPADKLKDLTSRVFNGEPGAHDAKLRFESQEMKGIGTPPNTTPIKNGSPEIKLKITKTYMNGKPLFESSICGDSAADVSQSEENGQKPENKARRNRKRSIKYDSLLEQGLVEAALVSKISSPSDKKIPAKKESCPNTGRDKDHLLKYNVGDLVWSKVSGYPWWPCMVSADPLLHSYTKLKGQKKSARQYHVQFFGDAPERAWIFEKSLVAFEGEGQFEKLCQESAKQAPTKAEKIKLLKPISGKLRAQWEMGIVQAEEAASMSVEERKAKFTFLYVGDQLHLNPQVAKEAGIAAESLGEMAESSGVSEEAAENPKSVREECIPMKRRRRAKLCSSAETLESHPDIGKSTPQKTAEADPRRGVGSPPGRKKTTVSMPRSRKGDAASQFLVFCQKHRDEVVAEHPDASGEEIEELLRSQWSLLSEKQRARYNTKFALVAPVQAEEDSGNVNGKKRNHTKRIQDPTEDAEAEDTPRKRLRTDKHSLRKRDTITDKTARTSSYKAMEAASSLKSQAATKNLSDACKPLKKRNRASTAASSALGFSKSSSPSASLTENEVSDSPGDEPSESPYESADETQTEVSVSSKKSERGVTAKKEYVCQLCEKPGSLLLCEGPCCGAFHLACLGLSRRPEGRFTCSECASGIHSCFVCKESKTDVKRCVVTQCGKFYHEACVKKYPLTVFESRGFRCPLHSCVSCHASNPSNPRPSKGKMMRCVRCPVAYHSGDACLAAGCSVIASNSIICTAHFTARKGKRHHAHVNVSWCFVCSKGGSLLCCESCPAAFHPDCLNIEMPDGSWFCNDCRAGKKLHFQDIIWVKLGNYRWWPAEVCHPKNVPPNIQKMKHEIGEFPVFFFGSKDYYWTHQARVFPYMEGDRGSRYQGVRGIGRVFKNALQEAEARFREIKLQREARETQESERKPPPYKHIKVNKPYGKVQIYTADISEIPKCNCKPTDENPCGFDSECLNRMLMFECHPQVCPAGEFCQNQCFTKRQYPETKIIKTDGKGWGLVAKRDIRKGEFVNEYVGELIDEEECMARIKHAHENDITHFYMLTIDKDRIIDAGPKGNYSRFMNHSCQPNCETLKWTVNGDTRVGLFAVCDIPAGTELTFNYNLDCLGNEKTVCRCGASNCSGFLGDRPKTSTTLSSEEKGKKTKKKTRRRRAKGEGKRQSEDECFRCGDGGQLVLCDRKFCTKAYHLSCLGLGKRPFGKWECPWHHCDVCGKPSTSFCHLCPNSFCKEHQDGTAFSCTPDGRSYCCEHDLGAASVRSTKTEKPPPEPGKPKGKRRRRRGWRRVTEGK
Format: biochemical.

A short description of test [15]: viability of uninfected HEp-2 cells – cell-based, HTS, cytotoxicity control for RSV inhibitor project, dose response (AID 2410). In kind it is functional. The conditions noted are these: human respiratory syncytial virus.
The target of test [16] is T4, Zinc finger protein mex-5 (Caenorhabditis elegans, UniProt Q9XUB2).
T4 sequence (Q9XUB2 whole entry): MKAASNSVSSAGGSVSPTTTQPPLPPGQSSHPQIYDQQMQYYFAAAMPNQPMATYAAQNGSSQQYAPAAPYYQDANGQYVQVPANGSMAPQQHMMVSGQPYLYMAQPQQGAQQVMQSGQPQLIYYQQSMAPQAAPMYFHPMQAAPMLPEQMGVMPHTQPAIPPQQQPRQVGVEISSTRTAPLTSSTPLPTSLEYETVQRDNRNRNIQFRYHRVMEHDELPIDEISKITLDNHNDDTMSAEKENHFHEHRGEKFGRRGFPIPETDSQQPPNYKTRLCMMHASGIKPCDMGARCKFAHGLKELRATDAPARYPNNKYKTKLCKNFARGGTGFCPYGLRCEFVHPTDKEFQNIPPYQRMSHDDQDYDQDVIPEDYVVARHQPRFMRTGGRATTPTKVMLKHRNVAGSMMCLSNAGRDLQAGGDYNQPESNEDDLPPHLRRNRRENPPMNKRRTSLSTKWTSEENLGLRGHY
The experiment in a line: potency of MEX-5 RNA-binding blockers – biochemical, C. elegans, fluorescence polarization, dose response (AID 1960).

The target in test [17] is T5, RNA-binding protein pos-1 (Caenorhabditis elegans, UniProt G5EF15).
T5 sequence (G5EF15 whole entry): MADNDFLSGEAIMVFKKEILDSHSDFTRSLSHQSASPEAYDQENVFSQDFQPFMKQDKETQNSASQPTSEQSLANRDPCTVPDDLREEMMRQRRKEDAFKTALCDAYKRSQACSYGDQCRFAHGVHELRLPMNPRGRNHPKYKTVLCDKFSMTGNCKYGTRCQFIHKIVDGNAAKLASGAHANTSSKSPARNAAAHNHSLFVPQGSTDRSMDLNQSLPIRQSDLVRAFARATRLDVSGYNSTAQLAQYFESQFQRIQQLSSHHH
The experiment in a line: disruptors of C. elegans POS-1 RNA interaction – biochemical, fluorescence polarization, dose response (AID 1964).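 Further: purified POS-1 fused to maltose binding protein made in E. coli; potency of compounds blocking POS-1 binding to fluorescent RNA.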

Chain of Genome polyprotein (P29990 2492-3391 limits assumed): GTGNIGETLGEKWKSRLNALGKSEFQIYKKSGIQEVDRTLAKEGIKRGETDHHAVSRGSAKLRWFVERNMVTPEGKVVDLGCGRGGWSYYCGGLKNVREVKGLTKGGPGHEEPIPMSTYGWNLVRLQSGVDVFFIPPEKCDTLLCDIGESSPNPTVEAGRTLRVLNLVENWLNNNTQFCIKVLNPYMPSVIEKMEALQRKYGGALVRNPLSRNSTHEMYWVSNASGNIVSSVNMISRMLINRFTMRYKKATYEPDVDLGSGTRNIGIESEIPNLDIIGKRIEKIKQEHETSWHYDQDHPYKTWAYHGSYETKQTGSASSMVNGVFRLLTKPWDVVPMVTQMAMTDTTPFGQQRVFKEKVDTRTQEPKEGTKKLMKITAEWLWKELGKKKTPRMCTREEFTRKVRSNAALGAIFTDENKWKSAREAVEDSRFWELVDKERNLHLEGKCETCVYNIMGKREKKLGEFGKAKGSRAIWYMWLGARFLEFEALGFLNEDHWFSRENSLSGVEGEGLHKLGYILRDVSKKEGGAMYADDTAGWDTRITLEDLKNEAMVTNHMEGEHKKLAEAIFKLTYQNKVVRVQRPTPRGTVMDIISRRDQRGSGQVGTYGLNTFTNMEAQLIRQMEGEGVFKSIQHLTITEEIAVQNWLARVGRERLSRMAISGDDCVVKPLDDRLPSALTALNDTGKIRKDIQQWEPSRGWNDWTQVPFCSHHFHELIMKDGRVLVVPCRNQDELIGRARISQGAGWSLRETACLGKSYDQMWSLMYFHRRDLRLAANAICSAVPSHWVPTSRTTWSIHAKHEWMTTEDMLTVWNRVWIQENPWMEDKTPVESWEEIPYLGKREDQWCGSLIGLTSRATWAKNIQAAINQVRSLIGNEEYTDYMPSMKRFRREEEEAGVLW
T1 sequence (P11940 whole entry): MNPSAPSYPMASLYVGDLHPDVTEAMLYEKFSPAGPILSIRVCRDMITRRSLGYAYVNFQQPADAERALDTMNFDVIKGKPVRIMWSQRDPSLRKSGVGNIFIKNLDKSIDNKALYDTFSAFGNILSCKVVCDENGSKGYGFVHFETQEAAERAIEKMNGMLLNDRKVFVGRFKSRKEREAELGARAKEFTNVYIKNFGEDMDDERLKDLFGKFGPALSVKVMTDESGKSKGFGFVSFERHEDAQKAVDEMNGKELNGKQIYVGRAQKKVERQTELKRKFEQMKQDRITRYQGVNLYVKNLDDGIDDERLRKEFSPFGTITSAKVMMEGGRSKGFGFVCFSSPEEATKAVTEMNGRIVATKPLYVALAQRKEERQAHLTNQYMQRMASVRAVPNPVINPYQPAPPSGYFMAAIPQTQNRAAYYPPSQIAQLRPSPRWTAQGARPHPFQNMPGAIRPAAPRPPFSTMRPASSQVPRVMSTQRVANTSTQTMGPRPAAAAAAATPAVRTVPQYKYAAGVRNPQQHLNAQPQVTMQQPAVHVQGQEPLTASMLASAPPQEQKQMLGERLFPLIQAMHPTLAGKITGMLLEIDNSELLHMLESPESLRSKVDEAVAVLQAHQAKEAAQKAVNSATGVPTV
Chain of Cytochrome P450 2C9 (P11712 whole entry, the tested form may be a part): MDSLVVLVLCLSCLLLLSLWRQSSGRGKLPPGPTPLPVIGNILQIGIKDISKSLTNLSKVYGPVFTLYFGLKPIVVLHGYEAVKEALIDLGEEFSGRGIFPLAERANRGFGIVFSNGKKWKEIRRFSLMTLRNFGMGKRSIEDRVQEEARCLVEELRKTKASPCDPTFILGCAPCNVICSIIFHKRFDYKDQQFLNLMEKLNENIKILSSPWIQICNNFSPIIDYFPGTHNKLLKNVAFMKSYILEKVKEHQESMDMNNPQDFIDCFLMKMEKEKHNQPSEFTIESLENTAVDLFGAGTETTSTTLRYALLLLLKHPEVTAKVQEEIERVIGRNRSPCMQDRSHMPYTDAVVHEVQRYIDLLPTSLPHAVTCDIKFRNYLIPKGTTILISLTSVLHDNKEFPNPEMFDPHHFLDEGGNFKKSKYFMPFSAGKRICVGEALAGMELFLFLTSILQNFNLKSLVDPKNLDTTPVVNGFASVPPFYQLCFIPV
Chain of Cytochrome P450 3A4 (P08684 whole entry): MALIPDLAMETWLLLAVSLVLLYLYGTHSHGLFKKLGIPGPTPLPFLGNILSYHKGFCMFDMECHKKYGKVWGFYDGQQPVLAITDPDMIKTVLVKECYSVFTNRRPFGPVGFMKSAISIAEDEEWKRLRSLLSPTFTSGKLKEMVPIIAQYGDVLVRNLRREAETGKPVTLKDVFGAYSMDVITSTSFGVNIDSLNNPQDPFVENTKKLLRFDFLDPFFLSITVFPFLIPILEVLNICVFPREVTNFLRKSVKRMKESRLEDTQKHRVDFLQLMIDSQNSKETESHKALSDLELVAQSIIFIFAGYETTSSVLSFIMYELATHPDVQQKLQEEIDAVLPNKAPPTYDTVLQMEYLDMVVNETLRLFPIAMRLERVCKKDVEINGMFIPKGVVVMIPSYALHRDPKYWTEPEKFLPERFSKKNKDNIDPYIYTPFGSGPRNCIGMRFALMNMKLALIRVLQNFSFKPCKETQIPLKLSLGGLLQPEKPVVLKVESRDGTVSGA
Chain of Luciferin 4-monooxygenase (P08659 whole entry): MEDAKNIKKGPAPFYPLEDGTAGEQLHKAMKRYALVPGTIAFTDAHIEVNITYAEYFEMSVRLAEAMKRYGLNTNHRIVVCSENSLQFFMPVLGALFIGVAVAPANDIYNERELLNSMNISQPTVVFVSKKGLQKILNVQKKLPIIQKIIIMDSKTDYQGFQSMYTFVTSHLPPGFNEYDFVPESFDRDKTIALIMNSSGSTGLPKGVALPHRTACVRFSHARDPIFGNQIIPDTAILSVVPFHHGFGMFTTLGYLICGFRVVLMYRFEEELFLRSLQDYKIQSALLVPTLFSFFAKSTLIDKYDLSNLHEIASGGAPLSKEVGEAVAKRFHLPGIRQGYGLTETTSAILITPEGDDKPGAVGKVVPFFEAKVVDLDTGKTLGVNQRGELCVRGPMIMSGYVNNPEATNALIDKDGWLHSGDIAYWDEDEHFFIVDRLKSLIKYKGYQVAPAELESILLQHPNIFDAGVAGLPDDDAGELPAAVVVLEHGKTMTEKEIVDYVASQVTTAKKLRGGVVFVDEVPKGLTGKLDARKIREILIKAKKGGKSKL

`O=C(NC(=S)Nc1ccc(C(=O)N2CCOCC2)cc1)c1ccc([N+](=O)[O-])cc1`: the AC50 in [1] is 1.41 µM (inconclusive); in test [3], 891 nM (inconclusive). The IC50 in [2] and in test [4] was > 66 µM (inactive) each time.
On to `CCN1CCN(Cc2ccc(NC(=O)c3cc(NC(=O)c4cnn(-c5ccccc5)c4N)cc(OC)c3)cc2C(F)(F)F)CC1`, for which the AC50 in test [5] was 11.7 µM (active); in [6], 19.6 µM (active). Moreover, in test [7], the IC50 is > 20 µM (inactive).
For `COc1ccc(S(=O)(=O)Nc2cccc3c2O[C@@H](CN(C)Cc2ccc(C(=O)Nc4ccccc4N)cc2)[C@@H](C)CN([C@H](C)CO)C3=O)cc1`, the AC50 in test [8] was 4.14 µM (active).
Take `COc1cc2sc(-c3ccccc3OC)c(-c3ccc(OCCN4CCCCC4)cc3)c2cc1OC`: the AC50 in test [5] is 6.45 µM (active); in test [6] it was 7.69 µM (active). In [7], the IC50 was > 20 µM (inactive).
Regarding `O=c1[nH]c2ccc(NC(=S)Nc3ccccc3Cl)cc2[nH]1`, the IC50 in [2] and in test [4] was > 66 µM (inactive) each time. For the same compound, the EC50 in test [9] is reported as > 112 µM (not active).
On to `C[C@H]1CN([C@@H](C)CO)C(=O)c2cc(NC(=O)Cc3cn(C)c4ccccc34)ccc2O[C@H]1CN(C)S(=O)(=O)c1ccc(Cl)cc1`, for which the half-maximal activity concentration (AC50) in [8] was 2.81 µM (active).
Consider `CN1CCN(c2ccc(S(=O)(=O)N3CCCCC3)cc2NC(=O)c2ccc3ccccc3c2)CC1`, for which the concentration giving a half-maximal response (EC50) in test [10] was 16 µM (active); in [11], 17.8 µM (active). Further, the IC50 in test [7] was > 20 µM (inactive).
Consider `COc1ccc(CN(C)C[C@H]2Oc3ccc(NC(=O)C4CCCCC4)cc3CC(=O)N([C@@H](C)CO)C[C@@H]2C)cc1`, for which the AC50 in [8] is 1.2 µM (active).
In the case of `Cc1noc(C)c1-c1csc(N2CCC(C(N)=O)CC2)n1`, the IC50 in test [2] and in test [4] was > 66 µM (inactive) throughout.
With `C[C@@H]1CN([C@@H](C)CO)C(=O)Cc2cc(NC(=O)Nc3ccc4c(c3)OCO4)ccc2O[C@@H]1CN(C)Cc1ccc(Oc2ccccc2)cc1`, the AC50 in [8] is 2.77 µM (active).
For `O=C(c1ccc(NC(=O)C(c2ccccc2)c2ccccc2)cc1)c1ccc(C(=O)O)c(C(=O)O)c1`, the IC50 in test [12] is 57.6 µM (active).
Consider `C[C@H]1CN([C@@H](C)CO)C(=O)Cc2cc(NS(=O)(=O)c3ccc(F)cc3)ccc2O[C@H]1CN(C)Cc1ccc(C(=O)Nc2ccccc2N)cc1`, for which the AC50 in [8] is 2.64 µM (active).
Regarding `CCOC(=O)CNC(=O)CSc1nc(-c2cccc(C)c2)ns1`, the IC50 in test [2] and in test [4] was > 66 µM (inactive) each time.
On to `C[C@H](CO)N1C[C@H](C)[C@H](CN(C)Cc2ccc(C(F)(F)F)cc2)Oc2c(NC(=O)Nc3ccc(C(F)(F)F)cc3)cccc2C1=O`, for which the AC50 in test [8] is 4.77 µM (active).
In the case of `Nc1cc(O)nc(SCC(=O)Nc2cccc([N+](=O)[O-])c2)n1`, the AC50 in test [13] is 27.7 µM (active).
Turning to `O=C1Nn2c(nc3c(c2=O)CCCC3)/C1=N/Nc1cccc(C(F)(F)F)c1`, the IC50 in test [12] is 28.7 µM (active). For the same compound, the AC50 in [14] is > 20 µM (inactive). Also, the CC50 in test [15] was 25.1 µM (active).
As to `C[C@@H]1CN([C@@H](C)CO)C(=O)Cc2cc(NC(=O)Nc3cccc4ccccc34)ccc2O[C@@H]1CN(C)Cc1ccc(-c2ccccc2)cc1`, the AC50 in test [8] is 3.22 µM (active).
Turning to `COc1ccc(/C=C2/SC(=S)N(NS(=O)(=O)c3ccc(C)cc3)C2=O)cc1`, the IC50 in test [12] was 56.9 µM (active).
Consider `C[C@H](CO)N1C[C@H](C)[C@@H](CN(C)Cc2ccc(C(=O)Nc3ccccc3N)cc2)Oc2c(NC(=O)C3CC3)cccc2C1=O`, for which the concentration at half-maximal activity (AC50) in test [8] is 1.13 µM (active).
On to `O=C(NN=Cc1sc(=O)[n-]c1-[n+]1ccc(-c2ccncc2)cc1)c1ccccc1O`, for which the results for the EC50 in test [16] and in [17] were 10.7 µM (active) and 11.9 µM (active), respectively. For the same compound, the IC50 is 33.3 µM (inactive) in test [2] and 42.7 µM (inactive) in [4].
Take `CCC(c1nnnn1Cc1ccc(F)cc1)N(CCCO)Cc1cc2cc3c(cc2nc1O)OCO3` (stereo not given): the IC50 in [2] and in [4] was > 66 µM (inactive) each time.

Values taken from ChEMBL document CHEMBL1201862, “PubChem BioAssay data set” (2004).
